From PubChem BioAssay AID328 (DTP/NCI, 2004)
Values joined by “and” are separate entries in the source; they are usually repeats but may differ in a detail not shown here. Identical values can stand only once. Inconclusive results and toxic doses are left out.

System: BDF1 mice, P388 leukemia ip, median survival T/C
Experiment: NCI In Vivo Anticancer Drug Screen. Data for tumor model P388 Leukemia (intraperitoneal) in B6D2F1 (BDF1) mice
Details: endpoint: median survival time, higher = longer survival
Summary of the method: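 Transplantable tumour in mice; compound vs vehicle dosing; survival scored; ratio of treated to control reported.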

[1] = dose: 12.5 mg/kg/injection, schedule: Q04DX003 (ip), vehicle: water
[2] = dose: 50.0 mg/kg/injection, schedule: Q01DX009 (ip), vehicle: saline with Tween-80
[3] = dose: 100.0 mg/kg/injection, schedule: Q01DX009 (ip), vehicle: saline with Tween-80
[4] = dose: 200.0 mg/kg/injection, schedule: Q01DX009 (ip), vehicle: saline with Tween-80
[5] = dose: 400.0 mg/kg/injection, schedule: Q01DX009 (ip), vehicle: saline with Tween-80
[6] = dose: 100.0 mg/kg/injection, schedule: Q04DX003 (ip), vehicle: saline with Tween-80
[7] = dose: 200.0 mg/kg/injection, schedule: Q04DX003 (ip), vehicle: saline with Tween-80
[8] = dose: 75.0 mg/kg/injection, schedule: Q01DX009 (ip), vehicle: saline with Tween-80
[9] = dose: 150.0 mg/kg/injection, schedule: Q01DX009 (ip), vehicle: saline with Tween-80
[10] = dose: 25.0 mg/kg/injection, schedule: Q01DX009 (ip), vehicle: saline
[11] = dose: 50.0 mg/kg/injection, schedule: Q01DX009 (ip), vehicle: saline

## CCN(CC)c1ccc(/C=C/c2ccnc3ccccc23)cc1
dose: 1.56 mg/kg/injection, schedule: Q01DX009 (ip), vehicle: saline with Tween-80
  T/C: 95 % of control
dose: 3.13 mg/kg/injection, schedule: Q01DX009 (ip), vehicle: saline with Tween-80
  T/C: 105 % of control
dose: 6.25 mg/kg/injection, schedule: Q01DX009 (ip), vehicle: saline with Tween-80
  T/C: 90 % of control

## O=C(/C=C\c1ccnc2ccccc12)c1ccc([N+](=O)[O-])cc1
[1]
  T/C: 96 % of control
dose: 25.0 mg/kg/injection, schedule: Q01DX009 (ip), vehicle: water
  T/C: 114 % of control
dose: 25.0 mg/kg/injection, schedule: Q04DX003 (ip), vehicle: water
  T/C: 90 % of control
dose: 50.0 mg/kg/injection, schedule: Q01DX009 (ip), vehicle: water
  T/C: 117 % of control
dose: 50.0 mg/kg/injection, schedule: Q04DX003 (ip), vehicle: water
  T/C: 115 % of control
dose: 100.0 mg/kg/injection, schedule: Q01DX009 (ip), vehicle: water
  T/C: 95 % of control
dose: 100.0 mg/kg/injection, schedule: Q04DX003 (ip), vehicle: water
  T/C: 106 % of control and 111 % of control
dose: 200.0 mg/kg/injection, schedule: Q01DX009 (ip), vehicle: water
  T/C: 98 % of control
dose: 200.0 mg/kg/injection, schedule: Q04DX003 (ip), vehicle: water
  T/C: 100 % of control
dose: 400.0 mg/kg/injection, schedule: Q01DX009 (ip), vehicle: water
  T/C: 96 % of control
dose: 400.0 mg/kg/injection, schedule: Q04DX003 (ip), vehicle: water
  T/C: 100 % of control

## N#Cc1cccc(O)c1
[2]
  T/C: 104 % of control
[3]
  T/C: 100 % of control
[4]
  T/C: 109 % of control

## Cc1ccc2c(c1)nc1c3ccccc3nc(-c3ccccc3N)n21
[3]
  T/C: 97 % of control
[4]
  T/C: 115 % of control
[5]
  T/C: 108 % of control

## CCC(C)C1(C)OC1C(=O)OC (stereo unspecified)
[4]
  T/C: 107 % of control
[5]
  T/C: 107 % of control

## O=C(CC(=O)C(F)(F)F)c1ccc2c(c1)Cc1ccccc1-2
[6]
  T/C: 124 % of control
[7]
  T/C: 111 % of control

## O=C(CC(=O)NN=C1CCCCCC1)NN=C1CCCCCC1
dose: 37.5 mg/kg/injection, schedule: Q01DX009 (ip), vehicle: saline with Tween-80
  T/C: 98 % of control
[8]
  T/C: 105 % of control
[9]
  T/C: 99 % of control

## NCCNCC[OH2+].NCCNCC[OH2+].[Cu+2].[O-][Cl+3]([O-])([O-])[O-]
dose: 12.5 mg/kg/injection, schedule: Q01DX009 (ip), vehicle: saline
  T/C: 100 % of control
[10]
  T/C: 105 % of control

## Cc1ccccc1C(O)c1ccccc1Cl (stereo unspecified)
dose: 100.0 mg/kg/injection, schedule: Q01DX001 (ip), vehicle: saline sonified
  T/C: 100 % of control
dose: 200.0 mg/kg/injection, schedule: Q01DX001 (ip), vehicle: saline sonified
  T/C: 100 % of control
dose: 400.0 mg/kg/injection, schedule: Q01DX001 (ip), vehicle: saline sonified
  T/C: 100 % of control

## CC12CCC(Cl)CC1=CCC1C2CCC2(C)C1CCCN2CCCl (stereo unspecified)
dose: 12.5 mg/kg/injection, schedule: Q01DX001 (ip), vehicle: saline with Tween-80
  T/C: 105 % of control
dose: 12.5 mg/kg/injection, schedule: Q01DX001 (ip), vehicle: saline
  T/C: 102 % of control
dose: 25.0 mg/kg/injection, schedule: Q01DX001 (ip), vehicle: saline with Tween-80
  T/C: 113 % of control
dose: 25.0 mg/kg/injection, schedule: Q01DX001 (ip), vehicle: saline
  T/C: 117 % of control

## CC(NCCCSc1ccccc1)C(O)c1ccc(O)cc1 (stereo unspecified)
[2]
  T/C: 99 % of control and 100 % of control and 105 % of control
[3]
  T/C: 110 % of control and 114 % of control and 119 % of control

## CC(C)=CCC(OC(=O)C=C(C)C)C1=CC(=O)c2c(O)ccc(O)c2C1=O (stereo unspecified)
dose: 1.25 mg/kg/injection, schedule: Q01DX009 (ip), vehicle: carboxymethylcellulose (CMC)
  T/C: 100 % of control
dose: 2.5 mg/kg/injection, schedule: Q01DX009 (ip), vehicle: carboxymethylcellulose (CMC)
  T/C: 95 % of control
dose: 3.12 mg/kg/injection, schedule: Q01DX009 (ip), vehicle: water
  T/C: 118 % of control
dose: 6.25 mg/kg/injection, schedule: Q01DX009 (ip), vehicle: water
  T/C: 113 % of control
dose: 6.25 mg/kg/injection, schedule: Q04DX003 (ip), vehicle: water
  T/C: 122 % of control
[1]
  T/C: 122 % of control

## CCN(CC)CCCCCNc1cc(Cl)c(Cl)cc1[N+](=O)[O-]
[11]
  T/C: 111 % of control
dose: 100.0 mg/kg/injection, schedule: Q01DX009 (ip), vehicle: saline
  T/C: 100 % of control

## CSc1nc2n(C)cc(C)cc-2c(=O)n1
dose: 100.0 mg/kg/injection, schedule: Q01DX001 (ip), vehicle: suspension in saline
  T/C: 90 % of control

## Oc1cc(OCCCc2ccc(F)cc2)cc2ccc3ccccc3c12
[6]
  T/C: 112 % of control
[7]
  T/C: 86 % of control

## c1ccc2c(c1)C1=NCCN1c1ccccc1-2
dose: 5.3 mg/kg/injection, schedule: Q01DX009 (ip), vehicle: Klucel (hydroxypropylcellulose) (HPC)
  T/C: 86 % of control
dose: 8.0 mg/kg/injection, schedule: Q01DX009 (ip), vehicle: Klucel (hydroxypropylcellulose) (HPC)
  T/C: 86 % of control
dose: 10.0 mg/kg/injection, schedule: Q01DX009 (ip), vehicle: Klucel (hydroxypropylcellulose) (HPC)
  T/C: 115 % of control
dose: 12.0 mg/kg/injection, schedule: Q01DX009 (ip), vehicle: Klucel (hydroxypropylcellulose) (HPC)
  T/C: 95 % of control
dose: 17.7 mg/kg/injection, schedule: Q01DX009 (ip), vehicle: Klucel (hydroxypropylcellulose) (HPC)
  T/C: 108 % of control
dose: 20.0 mg/kg/injection, schedule: Q01DX009 (ip), vehicle: Klucel (hydroxypropylcellulose) (HPC)
  T/C: 110 % of control
dose: 40.0 mg/kg/injection, schedule: Q01DX009 (ip), vehicle: Klucel (hydroxypropylcellulose) (HPC)
  T/C: 150 % of control

## C1CSCSC1
dose: 6.25 mg/kg/injection, schedule: Q04DX003 (ip), vehicle: Klucel (hydroxypropylcellulose) (HPC)
  T/C: 100 % of control
dose: 12.5 mg/kg/injection, schedule: Q04DX003 (ip), vehicle: Klucel (hydroxypropylcellulose) (HPC)
  T/C: 95 % of control
dose: 25.0 mg/kg/injection, schedule: Q04DX003 (ip), vehicle: Klucel (hydroxypropylcellulose) (HPC)
  T/C: 87 % of control

## CC(C)c1nsc(N)c1C(N)=O
[2]
  T/C: 92 % of control
[3]
  T/C: 96 % of control

## CCOC(=O)/C=C/C(C(=O)OCC)C(=O)OCC
dose: 75.0 mg/kg/injection, schedule: Q04DX003 (ip), vehicle: saline with Tween-80
  T/C: 95 % of control
dose: 150.0 mg/kg/injection, schedule: Q04DX003 (ip), vehicle: saline with Tween-80
  T/C: 120 % of control

## CCOC(=O)C/C(C)=N/NC(=O)C(=O)N/N=C(\C)CC(=O)OCC
[8]
  T/C: 113 % of control
[9]
  T/C: 96 % of control
dose: 300.0 mg/kg/injection, schedule: Q01DX009 (ip), vehicle: saline with Tween-80
  T/C: 96 % of control

## CSCc1cccc(CO)c1
[3]
  T/C: 110 % of control
[4]
  T/C: 100 % of control
[5]
  T/C: 105 % of control

## S=c1cc(-c2ccccc2)ss1
[6]
  T/C: 110 % of control and 101 % of control
[7]
  T/C: 115 % of control and 101 % of control
dose: 400.0 mg/kg/injection, schedule: Q04DX003 (ip), vehicle: saline with Tween-80
  T/C: 108 % of control

## CN[C@H]1CCc2cc(OC)c(OC)c(OC)c2-c2ccc(OC)c(=O)cc21
dose: 0.63 mg/kg/injection, schedule: Q01DX010 (ip), vehicle: saline
  T/C: 104 % of control
dose: 1.25 mg/kg/injection, schedule: Q01DX009 (ip), vehicle: saline
  T/C: 117 % of control
dose: 1.25 mg/kg/injection, schedule: Q01DX010 (ip), vehicle: saline
  T/C: 122 % of control
dose: 2.5 mg/kg/injection, schedule: Q01DX010 (ip), vehicle: saline
  T/C: 122 % of control
dose: 5.0 mg/kg/injection, schedule: Q01DX010 (ip), vehicle: saline
  T/C: 150 % of control
dose: 10.0 mg/kg/injection, schedule: Q01DX009 (ip), vehicle: saline
  T/C: 93 % of control

## ClC1OCCOC1Cl (stereo unspecified)
[10]
  T/C: 96 % of control
[11]
  T/C: 100 % of control
dose: 50.0 mg/kg/injection, schedule: Q04DX003 (ip), vehicle: saline
  T/C: 105 % of control
dose: 100.0 mg/kg/injection, schedule: Q04DX003 (ip), vehicle: saline
  T/C: 110 % of control

## O=Cc1cn[nH]c1-c1ccccc1
dose: 100.0 mg/kg/injection, schedule: Q01DX009 (ip), vehicle: Klucel (hydroxypropylcellulose) (HPC)
  T/C: 92 % of control
dose: 100.0 mg/kg/injection, schedule: Q04DX003 (ip), vehicle: Klucel (hydroxypropylcellulose) (HPC)
  T/C: 87 % of control
dose: 200.0 mg/kg/injection, schedule: Q01DX009 (ip), vehicle: Klucel (hydroxypropylcellulose) (HPC)
  T/C: 88 % of control
dose: 200.0 mg/kg/injection, schedule: Q04DX003 (ip), vehicle: Klucel (hydroxypropylcellulose) (HPC)
  T/C: 87 % of control
